In US20250032569A1, “COMPOSITION, IN PARTICULAR COSMETIC FORMULATION, COMPRISING A VERBASCOSIDE EXTRACT” (MEDENA AG, priority 2021, published 2025):

How the values were obtained:
[1] = In vitro spectrophotometric SPF calculated by the Sayre equation (Eq. 1); type: physicochemical
Procedure: Each sample (1 ml) was placed in a 1 cm quartz cell. The absorbance was measured between 250-600 nm at an interval of every 1 nm using a Varian UV/Vis spectrophotometer (Cary 50 Scan). The following parameters were measured and calculated for each sample assuming standard application to the skin—2 mg/cm^2: • the SPF values. • the critical wavelength λC • the UVA/UVB ratio 1. […]
Each sample (1 ml) was placed in a 1 cm quartz cell. The absorbance was measured between 250-600 nm at an interval of every 1 nm using a Varian UV/Vis spectrophotometer (Cary 50 Scan). The following parameters were measured and calculated for each sample assuming standard application to the skin—2 mg/cm^2: • the SPF values. • the critical wavelength λC • the UVA/UVB ratio
The SPF values in vitro were calculated according to the method described by Sayre et al., (Sayre, R M; Agin, P P; LeVee, G J; Marlowe, E. A comparison of in vivo and in vitro testing of sunscreening formulas, Photochem. Photobiol. 1979, 29, 559-566). The calculation was done using Equation 1: […]
where Ss(λ) is the spectral irradiance, Ser(λ) is the CIE erythema action spectrum and T(λ) is the transmission of the sunscreen. The values of Ss(λ) and Ser(λ) were taken from the literature (B. L. Diffey, J. Robson. A new substrate to measure sunscreen protection factors throughout the ultraviolet spectrum, J. Soc. Cosmet. Chem. 1989, 40, 127-133). […]
SPF values were calculated using Eq. 1 for sun protective cosmetics applied at 2 mg/cm^2 (standard application).
The same methods and equations as in the case of plant extracts were applied.
Solutions of sunscreens at concentrations 0.001% were prepared in duplicate and UV-visible absorption spectra were recorded over the range of 250-600 nm (FIG. 1). On the basis of these spectra, the transmission of the sunscreen (T) was found from monochromatic absorbance values at wavelength λ: T=10^−A(λ).
The SPF in vitro was calculated according to the method described by Sayre et al., (Sayre, R M; Agin, P P; LeVee, G J; Marlowe, E. A comparison of in vivo and in vitro testing of sunscreening formulas, Photochem. Photobiol. 1979, 29, 559-566) following equation 1: […]
where Ss(λ) is the spectral irradiance, Ser(λ) the CIE erythema action spectrum and T(λ) the trans-mission of the sunscreen. Data for Ss(λ) and Ser(λ) are available in the literature (B. L. Diffey, J. Robson. A new substrate to measure sunscreen protection factors throughout the ultraviolet spectrum, J. Soc. Cosmet. Chem. 1989, 40, 127-133).
The SPF values were calculated using Eq 1 with the application conditions 2 mg/cm^2 (Standard application recommended by the European Agency).
The SPF value for lotions were calculated using Eq. 1 for three application conditions at 2 mg/cm^2 (standard application), 2.5 mg/cm^2 and 3 mg/cm^2. In the same Table 22, critical wavelength and the UVA/UVB ratios are shown.

[2] = Critical wavelength (λC) from absorption spectra (Eq. 2); type: physicochemical; conditions: for critical wavelength: chemical sunscreen, no concentration stated
Procedure: The Critical Wavelength λC is the wavelength, where the area under the absorbance spectrum for the irradiated product from 290 nm to λC is equal to 90% of the integral value of the absorbance spectrum from 290 to 400 nm and was calculated using Eq. 2:
where A (λ)=monochromatic absorbance values at wavelength λ. The critical wavelength was determined for all samples in order to assess a degree of UVA protection. In cases where the critical wavelength is lower than 370 nm, the protection from UVA is less evident.
The Critical Wavelength λC value for the test product was defined as that wavelength where the area under the absorbance spectrum of the sample from 290 nm to λC is 90% of the integral of the absorbance spectrum from 290 to 400 nm and is calculated using Eq. 2:
[formula] • A(λ)=monochromatic absorbance values at wavelength λ

[3] = Photo-stability under solar imitating UVA+UVB irradiation; type: physicochemical; conditions: absorption spectra without and after up to 40 min irradiation
[4] = SPF calculated by modified Sayre method; type: physicochemical
Text: In the following Table 20, there are SPF values obtained in vitro spectrophotometrically, which have been calculated by a classical Sayre method (Sayre, R M; Agin, P P; LeVee, G J; Marlowe, E. A comparison of in vivo and in vitro testing of sunscreening formulas, Photochem. Photobiol. 1979, 29, 559-566) and modified Sayre method, which gives results similar to those obtained in the in vivo tests recommended by COLIPA.
• (1) For water insoluble chemical filters, the modified Sayre method gives results close to those calculated by Simulator-Calculator (BASF) and the in vivo tests. The Simulator-Calculator uses the modified Sayre method assuming an exponentiation equal to 0.827 (X^0.827). • (2) For water soluble natural filters, the same modified Sayre method would give results close to those obtained by the in vivo tests (predicted by Simulator-Calculator). Examples of Cosmetic Compositions with Fully Natural Sun Protective Factors • 1. Sun protective lotion SPF 50+, high UV-A protection • 2. Sun protective cream SPF 50+, high UV-A protection • 3. Sun protective serum for pregnant and milking women SPF 50+, high UV-A protection • 4. Sun protective milk for babies SPF 50+, high UV-A protection • 5. Sun protective lotion SPF 20-30, high UV-A protection for people with highly sensitive skin E. Analysis of Sun Protective Parameters of Two Lotions and Cream Containing Lippia citriodora Extract with 40% of Verbascoside.

[5] = UVA/UVB ratio from absorption spectra (Eq. 3) and Boots UVA Star Rating; type: physicochemical; conditions: for ratio UVA/UVB: chemical sunscreen, no concentration stated
Procedure: Critical Wavelength (λC) and the UVA/UVB ratios were also calculated from the absorption spectra and were collected in Table 2. […] According to these International indications, aqueous solutions of Haberlea rhodopensis with different concentrations of myconoside can be attributed to the group of good protection (2 UVA Star Rating).
In order to further characterize solutions as skin photo-protectors from UVA, the UVA/UVB ratio was calculated using Eq. 3: […]
In order to characterize the ability of creams to protect skin against UVA the UVA/UVB ratio was calculated using Eq. 3: […]

[6] = organic (synthetic) chemical sunscreens, Table 1; cited from earlier work
[7] = Solubility of chemical UV filters
[8] = UV filter 0.5% in sun protective cosmetic (Table 20)
[9] = UV filter 1.0% in sun protective cosmetic (Table 20)
[10] = UV filter 2.5% in sun protective cosmetic (Table 20)
[11] = UV filter 5% in sun protective cosmetic (Table 20)
[12] = chemical UV filter 0.5% in sun protective solution (Tables 12-19)
[13] = chemical UV filter 1% in sun protective solution (Tables 12-19)
[14] = chemical UV filter 2.5% in sun protective solution (Tables 12-19)
[15] = chemical UV filter 5% in sun protective solution (Tables 12-19)
[16] = chemical UV filter 0.5% in sun protective solution
[17] = chemical UV filter 1% in sun protective solution
[18] = chemical UV filter 2.5% in sun protective solution
[19] = chemical UV filter 5% in sun protective solution
[20] = UV filter 0.5% in sun protective cosmetic
[21] = UV filter 1.0% in sun protective cosmetic
[22] = UV filter 2.5% in sun protective cosmetic
[23] = UV filter 5% in sun protective cosmetic
[24] = chemical UV filter 10% in sun protective solution (Tables 12-19)
[25] = chemical UV filter 10% in sun protective solution
[26] = UV filter 10% in sun protective cosmetic

butylmethoxydibenzoylmethane [avobenzone]
SPF values calculated by the Sayre equation [1, 8]: 1.5 | SPF values calculated by the Sayre equation [1, 9]: 2.0 | SPF values calculated by the Sayre equation [1, 10]: 6.1 | SPF values calculated by the Sayre equation [1, 11]: 32 | SPF values [1, 12]: 1.9 | SPF values [1, 13]: 3.0 | SPF values [1, 14]: 19 | SPF values [1, 15]: 297 | Critical wavelength (λC) [2, 16]: 385 nm | Critical wavelength (λC) [2, 17]: 385 nm | Critical wavelength (λC) [2, 18]: 385 nm | Critical wavelength (λC) [2, 19]: 385 nm | critical wavelength [2]: 385 nm | Photo-stability to solar imitating UVA+UVB irradiation [3]: HIGHLY unstable | SPF values calculated by Modified Sayre [4, 20]: 1.5 | SPF values calculated by Modified Sayre [4, 21]: 2.1 | SPF values calculated by Modified Sayre [4, 22]: 3.2 | SPF values calculated by Modified Sayre [4, 23]: 4.4

CCCCC(CC)COc1ccc(-c2nc(-c3ccc(OC)cc3)nc(-c3ccc(OCC(CC)CCCC)cc3O)n2)c(O)c1 (stereo not shown) [Bis-ethylhexyloxyphenol methoxyphenyl triazine]
SPF values calculated by the Sayre equation [1, 8]: 4.8 | SPF values calculated by the Sayre equation [1, 9]: 19 | SPF values calculated by the Sayre equation [1, 10]: 93 | SPF values [1, 12]: 5.7 | SPF values [1, 13]: 25 | SPF ([1]; chemical UV filter 1.5%): 60 | SPF ([1]; chemical UV filter 2.0%): 89 | SPF values [1, 14]: 60 | SPF values [1, 15]: 89 | SPF values [1, 24]: 107 | Critical wavelength (λC) [2, 16]: 365 nm | Critical wavelength (λC) [2, 17]: 365 nm | Critical wavelength (λC) [2, 18]: 365 nm | Critical wavelength (λC) [2, 19]: 365 nm | Critical wavelength (λC) [2, 25]: 365 nm | critical wavelength [2]: 365 nm | UVA/UVB [5, 16]: 0.50 | UVA/UVB [5, 17]: 0.50 | UVA/UVB [5, 18]: 0.50 | UVA/UVB [5, 19]: 0.50 | UVA/UVB [5, 25]: 0.50 | ratio UVA/UVB [5]: 0.50 | Photo-stability to solar imitating UVA+UVB irradiation [3]: HIGHLY unstable | SPF values calculated by Modified Sayre [4, 20]: 4.2 | SPF values calculated by Modified Sayre [4, 21]: 7.5 | SPF values calculated by Modified Sayre [4, 22]: 16.1 | SPF values calculated by Modified Sayre [4, 23]: 29 | SPF values calculated by Modified Sayre [4, 26]: 50

Cc1cc(CC(C)C[Si](C)(O[Si](C)(C)C)O[Si](C)(C)C)c(O)c(-n2nc3ccccc3n2)c1 (stereo not shown) [Mexoryl XL]
Absorbs UV-A [6]: UV-A | Absorbs UV-B [6]: UV-B

CCCCC(CC)COC(=O)C=Cc1ccc(OC)cc1 (stereo not shown) [octyl methoxycinnamate, Ethylhexyl methoxycinnamate]
Photo-stability to solar imitating UVA+UVB irradiation [3]: HIGHLY unstable

CCCCC(CC)COC(=O)c1ccc(Nc2nc(Nc3ccc(C(=O)NC(C)(C)C)cc3)nc(Nc3ccc(C(=O)OCC(CC)CCCC)cc3)n2)cc1 (stereo not shown) [Uvasorb HEB]
Absorbs UV-B [6]: UV-B

CC1(C)C2CCC1(CS(=O)(=O)O)C(=O)C2=Cc1ccc(C=C2C(=O)C3(CS(=O)(=O)O)CCC2C3(C)C)cc1 [Mexoryl SX]
Absorbs UV-A [6]: UV-A

CCCCC(CC)COc1ccc(-c2nc(-c3ccc(OC)cc3)nc(-c3ccc(OCC(CC)CCCC)cc3O)n2)c(O)c1 (stereo not shown) [Tinosorb S]
Absorbs UV-A [6]: UV-A | Absorbs UV-B [6]: UV-B

CCCCCCCCCCCCc1cc(C)cc(-n2nc3ccccc3n2)c1O [benzotriazolyl dodecyl p-cresol, Benzotriazolyl dodecyl p-cresol]
SPF values calculated by the Sayre equation [1, 8]: 2.1 | SPF values calculated by the Sayre equation [1, 9]: 5 | SPF values calculated by the Sayre equation [1, 10]: 29 | SPF values calculated by the Sayre equation [1, 11]: 91 | SPF values calculated by the Sayre equation ([1]; UV filter 10% in sun protective cosmetic (Table 20)): 132 | SPF values [1, 12]: 2.4 | SPF values [1, 13]: 6 | SPF values [1, 14]: 41 | SPF values [1, 15]: 105 | SPF values [1, 24]: 157 | Critical wavelength (λC) [2, 16]: 363 nm | Critical wavelength (λC) [2, 17]: 363 nm | Critical wavelength (λC) [2, 18]: 363 nm | Critical wavelength (λC) [2, 19]: 363 nm | Critical wavelength (λC) [2, 25]: 363 nm | critical wavelength [2]: 363 nm | UVA/UVB [5, 16]: 0.62 | UVA/UVB [5, 17]: 0.62 | UVA/UVB [5, 18]: 0.62 | UVA/UVB [5, 19]: 0.62 | UVA/UVB [5, 25]: 0.62 | ratio UVA/UVB [5]: 0.62 | SPF values calculated by Modified Sayre [4, 20]: 2.0 | SPF values calculated by Modified Sayre [4, 21]: 3.1 | SPF values calculated by Modified Sayre [4, 22]: 5.4 | SPF values calculated by Modified Sayre [4, 23]: 8.3 | SPF values calculated by Modified Sayre [4, 26]: 12.7 | SPF values calculated by Modified Sayre ([4]; UV filter 20% in sun protective cosmetic): 19 | Solubility in water [7]: insoluble in water
